{
  "source": "patent US20220023289A1",
  "about": "“Application Of Pyrroloquinoline Quinone In Preparation Of Medicament Used For Preventing And Treating Acute Altitude Sickness And Acute Altitude Hypoxia Injury” (priority 2018, published 2022)",
  "key": {"[1]": {"assay": "Rat body weight before the acute decompression hypoxia experiment (intragastric 7 days)", "method": "Select healthy Wistar rats weight 160-200 g, half female and half male. After feeding for 3 days, these Wistar rats are randomly divided into ten groups according to their body weight, each group has 16±2 rats. The groups are divided as follows: five groups of the hypoxic exposure drug test group, respectively, are given 0.91 mg/kg, 1.83 mg/kg, 3.66 mg/kg, 7.31 mg/kg, and 14.63 mg/kg drugs. […] After continuous intragastric administration for 7 days, the animals in the hypoxic exposure group are simultaneously put into the decompression and hypoxia compound experimental chamber, the hatch is closed, and the pressure is reduced at a speed of 10 m/s. After being raised to an altitude of 6000 m and maintained for 8 hours, the speed in 10 m/s drops is reduced to normal altitude, open the hatch, and then take out the animal, collect blood samples (after standing for 1 hour, the supernatant is centrifuged and stored at −20° C.), and liver tissue samples. Detection indicator includes body weight, serum blood glucose, ATP, lactic acid, endothelin, nitric oxide, SOD, CO, MDA related to oxidative stress, and total protein, albumin, triglycerides, total cholesterol, high-density lipoprotein cholesterol, low-density lipoprotein cholesterol, glutamic pyruvic transaminase, total bilirubin, gluamic oxalacetic transaminase, serum urea nitrogen, creatinine, uric acid, lactate dehydrogenase, creatine kinase, α-hydroxybutyrate dehydrogenase; liver ATP, hepatic glycogen. Except that the formal oxygen control animal group is not put into the decompression and hypoxia compound experimental chamber, other experimental conditions and detection indicators are the same."}, "[2]": {"assay": "Mice weight before hypoxia tolerance test of simulated 10000 m altitude acute decompression"}, "[3]": {"settings": "administration for 14 days, 1.32 mg/kg"}, "[4]": {"settings": "administration for 14 days, 2.64 mg/kg"}, "[5]": {"settings": "administration for 14 days, 5.28 mg/kg"}, "[6]": {"settings": "administration for 14 days, 10.56 mg/kg"}, "[7]": {"settings": "administration for 14 days, 21.12 mg/kg"}, "[8]": {"settings": "administration for seven days, 1.32 mg/kg"}, "[9]": {"settings": "administration for seven days, 2.64 mg/kg"}, "[10]": {"settings": "administration for seven days, 5.28 mg/kg"}, "[11]": {"settings": "administration for seven days, 10.56 mg/kg"}, "[12]": {"settings": "administration for seven days, 21.12 mg/kg"}, "[13]": {"settings": "administration for three days, 1.32 mg/kg"}, "[14]": {"settings": "administration for three days, 2.64 mg/kg"}, "[15]": {"settings": "administration for three days, 5.28 mg/kg"}, "[16]": {"settings": "administration for three days, 10.56 mg/kg"}, "[17]": {"settings": "administration for three days, 21.12 mg/kg"}, "[18]": {"settings": "seven days, repeat experiment in male mice, 1.32 mg/kg"}, "[19]": {"settings": "seven days, repeat experiment in male mice, 2.64 mg/kg"}, "[20]": {"settings": "seven days, repeat experiment in male mice, 5.28 mg/kg"}, "[21]": {"settings": "seven days, repeat experiment in male mice, 10.56 mg/kg"}, "[22]": {"settings": "seven days, repeat experiment in male mice, 21.12 mg/kg"}},
  "data": [
    {"molecule": "O=C(O)c1cc(C(=O)O)c2c(n1)C(=O)C(=O)c1cc(C(=O)O)[nH]c1-2", "note": "[PQQ, pyrroloquinoline quinone]", "values": [
      {"measurement": "rat body weight Female 7 days", "setting": "[1]; 7.31 mg/kg", "result": "171.1 ± 8.6", "unit": "g"},
      {"measurement": "rat body weight Male 1 day", "setting": "[1]; 7.31 mg/kg", "result": "169.9 ± 9.9", "unit": "g"},
      {"measurement": "rat body weight Male 7 days", "setting": "[1]; 7.31 mg/kg", "result": "198.6 ± 11.6", "unit": "g"},
      {"measurement": "rat body weight Female 1 day", "setting": "[1]; 14.63 mg/kg", "result": "152.7 ± 7.2", "unit": "g"},
      {"measurement": "rat body weight Female 7 days", "setting": "[1]; 14.63 mg/kg", "result": "166.0 ± 4.1", "unit": "g"},
      {"measurement": "rat body weight Male 1 day", "setting": "[1]; 14.63 mg/kg", "result": "171.6 ± 10", "unit": "g"},
      {"measurement": "rat body weight Male 7 days", "setting": "[1]; 14.63 mg/kg", "result": "199.6 ± 12.5", "unit": "g"},
      {"measurement": "effect on body weight", "setting": "[1]; female rats, 7 days", "result": "did not affect"},
      {"measurement": "effect on weight", "setting": "[1]; male rats, 7 days", "result": "did not affect"},
      {"measurement": "Mice weight Female 1 day", "setting": "[2]; [3]", "result": "16.13 ± 1.20", "unit": "g"},
      {"measurement": "Mice weight Female 7 days", "setting": "[2]; [3]", "result": "20.45 ± 1.37", "unit": "g"},
      {"measurement": "Mice weight Male 1 day", "setting": "[2]; [3]", "result": "16.36 ± 1.47", "unit": "g"},
      {"measurement": "Mice weight Male 7 days", "setting": "[2]; [3]", "result": "22.88 ± 1.78", "unit": "g"},
      {"measurement": "Mice weight Male 14 days", "setting": "[2]; [3]", "result": "30.85 ± 2.32", "unit": "g"},
      {"measurement": "Mice weight Female 1 day", "setting": "[2]; [4]", "result": "15.75 ± 1.07", "unit": "g"},
      {"measurement": "Mice weight Female 7 days", "setting": "[2]; [4]", "result": "21.41 ± 1.62", "unit": "g"},
      {"measurement": "Mice weight Male 1 day", "setting": "[2]; [4]", "result": "16.63 ± 1.87", "unit": "g"},
      {"measurement": "Mice weight Male 7 days", "setting": "[2]; [4]", "result": "22.58 ± 1.41", "unit": "g"},
      {"measurement": "Mice weight Male 14 days", "setting": "[2]; [4]", "result": "28.13 ± 2.70", "unit": "g"},
      {"measurement": "Mice weight Female 1 day", "setting": "[2]; [5]", "result": "15.63 ± 1.12", "unit": "g"},
      {"measurement": "Mice weight Female 7 days", "setting": "[2]; [5]", "result": "20.47 ± 2.11", "unit": "g"},
      {"measurement": "Mice weight Male 1 day", "setting": "[2]; [5]", "result": "17.01 ± 1.91", "unit": "g"},
      {"measurement": "Mice weight Male 7 days", "setting": "[2]; [5]", "result": "23.68 ± 2.02", "unit": "g"},
      {"measurement": "Mice weight Male 14 days", "setting": "[2]; [5]", "result": "29.44 ± 2.15", "unit": "g"},
      {"measurement": "Mice weight Female 1 day", "setting": "[2]; [6]", "result": "15.84 ± 1.33", "unit": "g"},
      {"measurement": "Mice weight Female 7 days", "setting": "[2]; [6]", "result": "21.68 ± 1.66", "unit": "g"},
      {"measurement": "Mice weight Male 1 day", "setting": "[2]; [6]", "result": "16.58 ± 1.68", "unit": "g"},
      {"measurement": "Mice weight Male 7 days", "setting": "[2]; [6]", "result": "23.13 ± 1.73", "unit": "g"},
      {"measurement": "Mice weight Male 14 days", "setting": "[2]; [6]", "result": "19.58 ± 2.11", "unit": "g"},
      {"measurement": "Mice weight Female 1 day", "setting": "[2]; [7]", "result": "15.68 ± 0.91", "unit": "g"},
      {"measurement": "Mice weight Female 7 days", "setting": "[2]; [7]", "result": "20.10 ± 2.07", "unit": "g"},
      {"measurement": "Mice weight Male 1 day", "setting": "[2]; [7]", "result": "16.86 ± 1.71", "unit": "g"},
      {"measurement": "Mice weight Male 7 days", "setting": "[2]; [7]", "result": "23.67 ± 1.77", "unit": "g"},
      {"measurement": "Mice weight Male 14 days", "setting": "[2]; [7]", "result": "30.81 ± 2.76", "unit": "g"},
      {"measurement": "Mice weight Female 1 day", "setting": "[2]; [8]", "result": "18.10 ± 1.19", "unit": "g"},
      {"measurement": "Mice weight Female 7 days", "setting": "[2]; [8]", "result": "21.36 ± 1.98", "unit": "g"},
      {"measurement": "Mice weight Male 1 day", "setting": "[2]; [8]", "result": "18.46 ± 1.36", "unit": "g"},
      {"measurement": "Mice weight Male 7 days", "setting": "[2]; [8]", "result": "22.19 ± 2.69", "unit": "g"},
      {"measurement": "Mice weight Female 1 day", "setting": "[2]; [9]", "result": "18.19 ± 1.24", "unit": "g"},
      {"measurement": "Mice weight Female 7 days", "setting": "[2]; [9]", "result": "21.40 ± 1.92", "unit": "g"},
      {"measurement": "Mice weight Male 1 day", "setting": "[2]; [9]", "result": "18.31 ± 1.01", "unit": "g"},
      {"measurement": "Mice weight Male 7 days", "setting": "[2]; [9]", "result": "23.51 ± 3.09", "unit": "g"},
      {"measurement": "Mice weight Female 1 day", "setting": "[2]; [10]", "result": "17.95 ± 1.28", "unit": "g"},
      {"measurement": "Mice weight Female 7 days", "setting": "[2]; [10]", "result": "22.71 ± 1.38", "unit": "g"},
      {"measurement": "Mice weight Male 1 day", "setting": "[2]; [10]", "result": "18.38 ± 1.85", "unit": "g"},
      {"measurement": "Mice weight Male 7 days", "setting": "[2]; [10]", "result": "22.04 ± 3.25", "unit": "g"},
      {"measurement": "Mice weight Female 1 day", "setting": "[2]; [11]", "result": "17.99 ± 1.41", "unit": "g"},
      {"measurement": "Mice weight Female 7 days", "setting": "[2]; [11]", "result": "22.66 ± 1.68", "unit": "g"},
      {"measurement": "Mice weight Male 1 day", "setting": "[2]; [11]", "result": "18.26 ± 1.15", "unit": "g"},
      {"measurement": "Mice weight Male 7 days", "setting": "[2]; [11]", "result": "22.41 ± 1.79", "unit": "g"},
      {"measurement": "Mice weight Female 1 day", "setting": "[2]; [12]", "result": "18.35 ± 1.62", "unit": "g"},
      {"measurement": "Mice weight Female 7 days", "setting": "[2]; [12]", "result": "23.94 ± 2.10", "unit": "g"},
      {"measurement": "Mice weight Male 1 day", "setting": "[2]; [12]", "result": "18.00 ± 1.78", "unit": "g"},
      {"measurement": "Mice weight Male 7 days", "setting": "[2]; [12]", "result": "23.54 ± 3.92", "unit": "g"},
      {"measurement": "Mice weight Female", "setting": "[2]; [13]", "result": "18.22 ± 1.16", "unit": "g"},
      {"measurement": "Mice weight Male", "setting": "[2]; [13]", "result": "19.97 ± 0.84", "unit": "g"},
      {"measurement": "Mice weight Female", "setting": "[2]; [14]", "result": "18.79 ± 1.14", "unit": "g"},
      {"measurement": "Mice weight Male", "setting": "[2]; [14]", "result": "19.65 ± 0.83", "unit": "g"},
      {"measurement": "Mice weight Female", "setting": "[2]; [15]", "result": "18.10 ± 0.76", "unit": "g"},
      {"measurement": "Mice weight Male", "setting": "[2]; [15]", "result": "20.16 ± 1.18", "unit": "g"},
      {"measurement": "Mice weight Female", "setting": "[2]; [16]", "result": "17.95 ± 1.14", "unit": "g"},
      {"measurement": "Mice weight Male", "setting": "[2]; [16]", "result": "19.73 ± 0.85", "unit": "g"},
      {"measurement": "Mice weight Female", "setting": "[2]; [17]", "result": "18.48 ± 1.01", "unit": "g"},
      {"measurement": "Mice weight Male", "setting": "[2]; [17]", "result": "19.28 ± 0.95", "unit": "g"},
      {"measurement": "Mice weight Male 1 day", "setting": "[2]; [18]", "result": "19.84 ± 1.84", "unit": "g"},
      {"measurement": "Mice weight Male 7 days", "setting": "[2]; [18]", "result": "27.14 ± 2.66", "unit": "g"},
      {"measurement": "Mice weight Male 1 day", "setting": "[2]; [19]", "result": "19.66 ± 1.08", "unit": "g"},
      {"measurement": "Mice weight Male 7 days", "setting": "[2]; [19]", "result": "26.78 ± 3.14", "unit": "g"},
      {"measurement": "Mice weight Male 1 day", "setting": "[2]; [20]", "result": "19.75 ± 1.27", "unit": "g"},
      {"measurement": "Mice weight Male 7 days", "setting": "[2]; [20]", "result": "26.47 ± 2.88", "unit": "g"},
      {"measurement": "Mice weight Male 1 day", "setting": "[2]; [21]", "result": "19.90 ± 1.06", "unit": "g"},
      {"measurement": "Mice weight Male 7 days", "setting": "[2]; [21]", "result": "27.33 ± 2.27", "unit": "g"},
      {"measurement": "Mice weight Male 1 day", "setting": "[2]; [22]", "result": "19.85 ± 1.00", "unit": "g"},
      {"measurement": "Mice weight Male 7 days", "setting": "[2]; [22]", "result": "26.73 ± 2.37", "unit": "g"},
      {"measurement": "Mice weight Female", "setting": "[2]; single dose test, 2.64 mg/kg", "result": "17.25 ± 1.23", "unit": "g"},
      {"measurement": "Mice weight Male", "setting": "[2]; single dose test, 2.64 mg/kg", "result": "19.71 ± 0.52", "unit": "g"},
      {"measurement": "Mice weight Female", "setting": "[2]; single dose test, 5.28 mg/kg", "result": "17.32 ± 1.35", "unit": "g"},
      {"measurement": "Mice weight Male", "setting": "[2]; single dose test, 5.28 mg/kg", "result": "19.51 ± 0.68", "unit": "g"},
      {"measurement": "Mice weight Female", "setting": "[2]; single dose test, 10.56 mg/kg", "result": "17.24 ± 0.96", "unit": "g"},
      {"measurement": "Mice weight Male", "setting": "[2]; single dose test, 10.56 mg/kg", "result": "19.16 ± 0.34", "unit": "g"}
    ]}
  ]
}
